Experimental data as given in patent US20230192617A1, “AZABICYCLIC(THIO)AMIDES AS FUNGICIDAL COMPOUNDS” (Bayer CropScience Aktiengesellschaft, priority 2020, published 2023).

Assays:
[1] = system: Colletotrichum lindemuthianum; experiment: In vivo preventive test on Colletotrichum lindemuthianum (leaf spot on bean); settings: 168 h, 500 ppm of active ingredient, preventive spray on bean, evaluated 7 days after inoculation, read-out: efficacy
Description: B-5. In Vivo Preventive Test on Colletotrichum lindemuthianum (Leaf Spot on Bean) [table] The active ingredients were made soluble and homogenized in a mixture of Dimethyl sulfoxide/Acetone/Tween® 80 and then diluted in water to the desired concentration. The young plants of bean were treated by spraying the active ingredient prepared as described above. Control plants were treated only with an aqueous solution of Acetone/Dimethyl sulfoxide/Tween® 80. After 24 hours, the plants were contaminated by spraying the leaves with an aqueous suspension of Colletotrichum lindemuthianum spores. The contaminated bean plants were incubated for 24 hours at 20° C. and at 100% relative humidity and then for 6 days at 20° C. and at 90% relative humidity.

Botrytis cinerea [2] = experiment: In vivo preventive test on Botrytis cinerea (grey mould); settings: 500 ppm of active ingredient, preventive spray on gherkin or cabbage, evaluated 4 to 5 days after inoculation, read-out: efficacy
Outline: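 Preventive spray on cabbage or gherkin seedlings, with compound formulated in DMSO/acetone/Tween 80 and water-diluted, preceded spore inoculation by 24 hours. Cabbage was held 4 to 5 days at 20° C., 100% relative humidity; gherkin 4 to 5 days at 17° C., 90% relative humidity.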

[3] = Measurement of Log P values by HPLC on reversed phase columns (EEC directive 79/831 Annex V.A8); type: physicochemical; settings: reversed phase HPLC column, method [a]: LC-UV, acidic range, 0.1% formic acid in water and acetonitrile as eluent
Outline: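 Log P derived from retention on reversed-phase columns (EEC directive 79/831 Annex V.A8), LC-UV, acetonitrile gradient 10% to 95% against water containing 0.1% formic acid, 0.001 M ammonium acetate, or 0.1% phosphoric acid; several values per method separated by "+".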

Pyrenophora teres = experiment: B-10. Pyrenophora teres in vitro cell test; type: cell-based; settings: 144 h, 20 ppm of active ingredient, 6 days incubation, liquid culture, absorbance, read-out: efficacy (inhibition of fungal growth)
Outline: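 Liquid-culture assay on a P. teres spore suspension with compounds added to the medium from DMSO solutions, final DMSO ≤1%. Mycelium growth read spectrometrically after 6 days. Inhibition calculated from absorbance against untreated control wells.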

Alternaria brassicae = experiment: In vivo preventive test on Alternaria brassicae (leaf spot on radish or cabbage); settings: 500 ppm of active ingredient, preventive spray on radish or cabbage, evaluated 3 to 4 days after inoculation, read-out: efficacy
Outline: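 Protective spray on young radish or cabbage: actives in water diluted from DMSO/acetone/Tween 80, with solvent-only controls. Leaves were challenged after 24 h with a spore suspension, and plants were held at 100% RH, 20 °C for 3 to 4 days.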

Botrytis cinerea [4] = experiment: B-11. Botrytis cinerea in vitro cell test; type: cell-based; settings: 144 h, 20 ppm of active ingredient, 6 days incubation, liquid culture, absorbance, read-out: efficacy (inhibition of fungal growth)
Outline: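 B. cinerea spores were grown in liquid culture with compound (DMSO ≤1% final). Mycelium growth was measured spectrometrically after 6 days, with inhibition taken as absorbance relative to untreated control wells.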

Sphaerotheca fuliginea = experiment: In vivo preventive test on Sphaerotheca fuliginea (powdery mildew on cucurbits); settings: Podosphaera fuliginea, 192 h; 500 ppm of active ingredient; preventive spray on gherkin; evaluated 8 days after inoculation; read-out: efficacy
Description: B-4. in vivo preventive test on Sphaerotheca fuliginea (powdery mildew on cucurbits) [table] The active ingredients were made soluble and homogenized in a mixture of Dimethyl sulfoxide/Acetone/Tween® 80 and then diluted in water to the desired concentration. The young plants of gherkin were treated by spraying the active ingredient prepared as described above. Control plants were treated only with an aqueous solution of Acetone/Dimethyl sulfoxide/Tween® 80. After 24 hours, the plants were contaminated by spraying the leaves with an aqueous suspension of Sphaerotheca fuliginea spores. The contaminated gherkin plants were incubated for 8 days at 20° C. and at 70-80% relative humidity.

Alternaria alternata = Alternaria alternata in vitro cell test; type: cell-based; settings: 120 h, 20 ppm of active ingredient, liquid culture, 5 days incubation, spectrometric measurement of mycelium growth, read-out: efficacy (inhibition of fungal growth)
Outline: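 Spectrometric readout of mycelial growth after 5-day incubation gauged compound effects on spore germination and growth of A. alternata in liquid medium. Compounds were delivered in DMSO at ≤1% final. Absorbance was compared with untreated controls to give inhibition.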

[5] = system: Colletotrichum lindemuthianum; experiment: B-8. Colletotrichum lindemuthianum in vitro cell test; type: cell-based; settings: 144 h, 20 ppm of active ingredient, 6 days incubation, liquid culture, absorbance, read-out: efficacy (inhibition of fungal growth)
Outline: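 Liquid-culture germination/growth test: compounds in ≤1% final DMSO were added to spore-containing medium. Fungal growth was quantified spectrophotometrically after 6 days of incubation and expressed as inhibition versus untreated controls.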

Row | Compound | pest or weed control at 500 ppm [1] [%] | pest or weed control at 500 ppm (Botrytis cinerea [2]) [%] | chromatographic logP [3] | inhibition at 20 ppm (Pyrenophora teres) [%] | pest or weed control at 500 ppm (Alternaria brassicae) [%] | inhibition at 20 ppm (Botrytis cinerea [4]) [%] | pest or weed control at 500 ppm (Sphaerotheca fuliginea) [%] | inhibition at 20 ppm (Alternaria alternata) [%] | inhibition at 20 ppm [5] [%]
1 | O=C(NCC(F)(F)c1ccc(C2=CCCC2)cc1Cl)c1c(Oc2cccc(C(F)(F)F)c2)nnc2ccccc12 [I-073] | 80 to 89 | 90 to 100 | 5.4 | 90 to 100 | 90 to 100 | 90 to 100 | – | – | –
2 | C#Cc1cccc(Oc2cnc3ccccc3c2C(=O)NCC(F)(F)c2ccc(C)cc2C)c1 [I-215] | – | 90 to 100 | 4.13 | 90 to 100 | 80 to 89 | 90 to 100 | 90 to 100 | 80 to 89 | 90 to 100
3 | O=C(NC[C@@H](F)c1ccc(Cl)c(Cl)c1)c1c(Oc2cccc(C(F)(F)F)c2)cnc2ccccc12 (racemic) [I-059] | – | 90 to 100 | 4.47 | – | – | 90 to 100 | 70 to 79 | 90 to 100 | –
4 | O=C(NC[C@H](F)c1ccc(C2CC2)cc1Cl)c1c(Oc2cccc(C(F)(F)F)c2)cnc2ccccc12 (racemic) [I-062] | – | 90 to 100 | 4.7 | – | 90 to 100 | 90 to 100 | 90 to 100 | 90 to 100 | 90 to 100
5 | Cc1ccc2c(c1)CCC[C@@H]2NC(=O)c1c(Oc2cccc(C(F)(F)F)c2)nnc2ccccc12 (racemic) [I-078] | – | 90 to 100 | 4.47 | 90 to 100 | 90 to 100 | 90 to 100 | 90 to 100 | 90 to 100 | 90 to 100
6 | O=C(N[C@H]1CCOc2ccccc21)c1c(Oc2cccc(C(F)(F)F)c2)nnc2ccccc12 [I-172] | – | – | 3.65 | 90 to 100 | 90 to 100 | 90 to 100 | 80 to 89 | 90 to 100 | 90 to 100
7 | Cc1ccc(C(F)(F)CNC(=O)c2c(Oc3cccc(C(F)(F)F)c3)nnc3c2CCC3(C)C)c(C)c1 [I-232] | – | 90 to 100 | 4.85 | 90 to 100 | 80 to 89 | 90 to 100 | 90 to 100 | – | 70 to 79
8 | O=C(NCC(F)(F)c1ccc(Cl)cc1)c1c(Oc2cccc(C(F)F)c2)nnc2ccccc12 [I-034] | 80 to 89 | 90 to 100 | 3.68 | – | 90 to 100 | – | – | 90 to 100 | 90 to 100
9 | COc1cc([C@@H](F)CNC(=O)c2c(Oc3cccc(C(F)(F)F)c3)cnc3ccccc23)ccc1Cl (racemic) [I-058] | – | 90 to 100 | 4.05 | – | 90 to 100 | 90 to 100 | 90 to 100 | 90 to 100 | 90 to 100
10 | COc1cc([C@@H](F)CNC(=O)c2c(Oc3cccc(Cl)c3)nnc3ccccc23)ccc1Cl (racemic) [I-050] | 80 to 89 | 80 to 89 | 3.77 | – | 90 to 100 | 90 to 100 | – | 90 to 100 | 90 to 100
